Calls of active or inactive are those of the source. The rule behind the calls is not given here.

The first data set deals with MCF7. The data set is described as follows: Antiproliferative activity against human MCF7 cells assessed as reduction in cell growth incubated for 48 hrs by CCK8 assay. To be noted: MCF7, 48 h. For orientation: Tetrazolium dyes change colour on reduction, which living cells bring about.
`C=CCN1C(=O)[C@@]2(N[C@@H](C(F)(F)F)[C@H](c3ccccc3)[C@H]2c2onc(C)c2[N+](=O)[O-])c2ccccc21`: the IC50 (commonly the point on the concentration scale where inhibition reaches its midpoint) is 3.42 µM.
For the molecule `Cc1noc([C@@H]2[C@@H](c3ccccc3)[C@H](C(F)(F)F)N[C@@]23C(=O)Nc2ccccc23)c1[N+](=O)[O-]`, the IC50 turned out to be 0.38 µM.
On the same count and under the same terms, under `COc1ccccc1[C@H]1[C@H](C(F)(F)F)N[C@@]2(C(=O)Nc3ccccc32)[C@@H]1c1onc(C)c1[N+](=O)[O-]` stands 4.59 µM.
The same measure, in the same setting: in the case of `Cc1noc([C@@H]2[C@@H](c3ccccc3)[C@H](C(F)(F)F)N[C@@]23C(=O)Nc2ccc(Cl)cc23)c1[N+](=O)[O-]` it was 0.37 µM; in that of `Cc1noc([C@@H]2C(c3cccs3)[C@H](C(F)(F)F)N[C@@]23C(=O)Nc2ccccc23)c1[N+](=O)[O-]` (single isomer, unassigned), 1.53 µM.
Still for that read-out and setting: in the case of `Cc1noc([C@@H]2[C@@H](c3ccccc3)[C@H](C(F)(F)F)N[C@@]23C(=O)Nc2ccc([N+](=O)[O-])cc23)c1[N+](=O)[O-]` it was 4.75 µM; in that of `Cc1noc([C@@H]2[C@@H](c3ccccc3)[C@H](C(F)(F)F)N[C@@]23C(=O)Nc2cc(Br)ccc23)c1[N+](=O)[O-]`, 0.17 µM.
Take `Cc1noc([C@@H]2[C@@H](c3ccc(F)cc3)[C@H](C(F)(F)F)N[C@@]23C(=O)Nc2ccccc23)c1[N+](=O)[O-]`: the IC50 is 0.55 µM.
As to `Cc1noc([C@@H]2[C@@H](c3ccc(C(C)C)cc3)[C@H](C(F)(F)F)N[C@@]23C(=O)Nc2ccccc23)c1[N+](=O)[O-]`, the IC50 came to 2.83 µM.
Still for that read-out and setting: in the case of `Cc1noc([C@@H]2[C@@H](c3cc(Cl)ccc3Cl)[C@H](C(F)(F)F)N[C@@]23C(=O)Nc2ccccc23)c1[N+](=O)[O-]` it was 3.98 µM.
Same read-out and setting: in the case of `Cc1ccc([C@H]2[C@H](C(F)(F)F)N[C@@]3(C(=O)Nc4ccccc43)[C@@H]2c2onc(C)c2[N+](=O)[O-])cc1` it was 2.81 µM.
Same read-out and setting: in the case of `Cc1noc([C@@H]2[C@@H](c3ccc(Cl)c(Cl)c3)[C@H](C(F)(F)F)N[C@@]23C(=O)Nc2ccccc23)c1[N+](=O)[O-]` it was 3.22 µM.
In the case of `CC(=O)N1C(=O)[C@@]2(N[C@@H](C(F)(F)F)[C@H](c3ccccc3)[C@H]2c2onc(C)c2[N+](=O)[O-])c2ccccc21`, the IC50 amounted to 3.23 µM.
`Cc1noc([C@@H]2[C@@H](c3ccccc3Br)[C@H](C(F)(F)F)N[C@@]23C(=O)Nc2ccccc23)c1[N+](=O)[O-]`: the half-inhibitory concentration (IC50) turned out to be 4.71 µM.
The same measure, in the same setting: under `COc1ccc(C2=NC(c3ccc(Cl)cc3)C(c3ccc(Cl)cc3)N2C(=O)N2CCNC(=O)C2)c(OC(C)C)c1` (stereo not given) stands 14.6 µM; under `Cc1onc(C(=O)N2CCN(C(c3ccc(Cl)cc3)c3ccc(Cl)cc3)CC2)c1[N+](=O)[O-]`, 0.076 µM.

Another data set has as its target T1, Phospholipid hydroperoxide glutathione peroxidase GPX4 (Homo sapiens) (UniProt P36969).
T1 sequence (whole entry): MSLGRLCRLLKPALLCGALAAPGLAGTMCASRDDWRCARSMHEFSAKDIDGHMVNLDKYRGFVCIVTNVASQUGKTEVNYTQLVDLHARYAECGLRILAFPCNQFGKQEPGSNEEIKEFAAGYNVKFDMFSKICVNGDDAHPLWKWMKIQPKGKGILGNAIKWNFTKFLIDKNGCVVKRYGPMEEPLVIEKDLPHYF
The data set is described as follows: Inhibition of GPX4 in human MCF7 cells assessed as increase in GPX4 degradation incubated for 48 hrs by Western blot analysis. It counts as cell-based. The settings on record: dose 0.1-2 µM. For orientation: Immunoblotting shows a protein as a band on a membrane.
In the case of `COc1ccc(C2=NC(c3ccc(Cl)cc3)C(c3ccc(Cl)cc3)N2C(=O)N2CCNC(=O)C2)c(OC(C)C)c1` (stereo not given), the inhibition entry was “inactive”.

The subject of the next data set is MCF-10A. The data set is described as follows: Cytotoxicity against human MCF-10A cells assessed as reduction in cell viability incubated for 48 hrs by CCK8 assay. Format: cell-based.
Conditions: not given
As to `C=CCN1C(=O)[C@@]2(N[C@@H](C(F)(F)F)[C@H](c3ccccc3)[C@H]2c2onc(C)c2[N+](=O)[O-])c2ccccc21`, the Activity result is on record as “Non-Toxic”.
For `Cc1noc([C@@H]2[C@@H](c3ccccc3)[C@H](C(F)(F)F)N[C@@]23C(=O)Nc2ccccc23)c1[N+](=O)[O-]`, the Activity entry was “Non-Toxic”.
Turning to `COc1ccccc1[C@H]1[C@H](C(F)(F)F)N[C@@]2(C(=O)Nc3ccccc32)[C@@H]1c1onc(C)c1[N+](=O)[O-]`, the Activity entry is “Non-Toxic”.
`Cc1noc([C@@H]2[C@@H](c3ccccc3)[C@H](C(F)(F)F)N[C@@]23C(=O)Nc2ccc(Cl)cc23)c1[N+](=O)[O-]`: the Activity result is reported as “Non-Toxic”.
For the molecule `Cc1noc([C@@H]2C(c3cccs3)[C@H](C(F)(F)F)N[C@@]23C(=O)Nc2ccccc23)c1[N+](=O)[O-]` (single isomer, unassigned), the Activity result is on record as “Non-Toxic”.
Same read-out and setting: in the case of `Cc1noc([C@@H]2[C@@H](c3ccccc3)[C@H](C(F)(F)F)N[C@@]23C(=O)Nc2ccc([N+](=O)[O-])cc23)c1[N+](=O)[O-]` it was “Non-Toxic”.
Same read-out and setting: under `Cc1noc([C@@H]2[C@@H](c3ccccc3)[C@H](C(F)(F)F)N[C@@]23C(=O)Nc2cc(Br)ccc23)c1[N+](=O)[O-]` stands “Non-Toxic”; under `Cc1noc([C@@H]2[C@@H](c3ccc(F)cc3)[C@H](C(F)(F)F)N[C@@]23C(=O)Nc2ccccc23)c1[N+](=O)[O-]`, “Non-Toxic”.
`Cc1noc([C@@H]2[C@@H](c3ccc(C(C)C)cc3)[C@H](C(F)(F)F)N[C@@]23C(=O)Nc2ccccc23)c1[N+](=O)[O-]`: the Activity result was “Non-Toxic”.
Same read-out and setting: in the case of `Cc1noc([C@@H]2[C@@H](c3cc(Cl)ccc3Cl)[C@H](C(F)(F)F)N[C@@]23C(=O)Nc2ccccc23)c1[N+](=O)[O-]` it was “Non-Toxic”; in that of `Cc1ccc([C@H]2[C@H](C(F)(F)F)N[C@@]3(C(=O)Nc4ccccc43)[C@@H]2c2onc(C)c2[N+](=O)[O-])cc1`, “Non-Toxic”.
Same read-out and setting: in the case of `Cc1noc([C@@H]2[C@@H](c3ccc(Cl)c(Cl)c3)[C@H](C(F)(F)F)N[C@@]23C(=O)Nc2ccccc23)c1[N+](=O)[O-]` it was “Non-Toxic”; in that of `CC(=O)N1C(=O)[C@@]2(N[C@@H](C(F)(F)F)[C@H](c3ccccc3)[C@H]2c2onc(C)c2[N+](=O)[O-])c2ccccc21`, “Non-Toxic”; in that of `Cc1noc([C@@H]2[C@@H](c3ccccc3Br)[C@H](C(F)(F)F)N[C@@]23C(=O)Nc2ccccc23)c1[N+](=O)[O-]`, “Non-Toxic”.

A further data set relates to MCF7. The data set is described as follows: Antiproliferative activity against human MCF7 cells assessed as reduction in cell growth incubated for 48 hrs in presence of Fer-1 by CCK8 assay. The settings on record: MCF7, 48 h.
Take `C=CCN1C(=O)[C@@]2(N[C@@H](C(F)(F)F)[C@H](c3ccccc3)[C@H]2c2onc(C)c2[N+](=O)[O-])c2ccccc21`: the IC50 is above 20 µM.
For the molecule `Cc1noc([C@@H]2[C@@H](c3ccccc3)[C@H](C(F)(F)F)N[C@@]23C(=O)Nc2ccccc23)c1[N+](=O)[O-]`, the IC50 stood at 17.6 µM.
Still for that read-out and setting: under `COc1ccccc1[C@H]1[C@H](C(F)(F)F)N[C@@]2(C(=O)Nc3ccccc32)[C@@H]1c1onc(C)c1[N+](=O)[O-]` stands above 20 µM; under `Cc1noc([C@@H]2[C@@H](c3ccccc3)[C@H](C(F)(F)F)N[C@@]23C(=O)Nc2ccc(Cl)cc23)c1[N+](=O)[O-]`, 19.8 µM.
As for `Cc1noc([C@@H]2C(c3cccs3)[C@H](C(F)(F)F)N[C@@]23C(=O)Nc2ccccc23)c1[N+](=O)[O-]` (single isomer, unassigned), the half-inhibitory concentration (IC50) turned out to be 19 µM.
On the same count and under the same terms, in the case of `Cc1noc([C@@H]2[C@@H](c3ccccc3)[C@H](C(F)(F)F)N[C@@]23C(=O)Nc2ccc([N+](=O)[O-])cc23)c1[N+](=O)[O-]` it was above 20 µM.
The same measure, in the same setting: in the case of `Cc1noc([C@@H]2[C@@H](c3ccccc3)[C@H](C(F)(F)F)N[C@@]23C(=O)Nc2cc(Br)ccc23)c1[N+](=O)[O-]` it was 13.7 µM; in that of `Cc1noc([C@@H]2[C@@H](c3ccc(F)cc3)[C@H](C(F)(F)F)N[C@@]23C(=O)Nc2ccccc23)c1[N+](=O)[O-]`, 17.4 µM; in that of `Cc1noc([C@@H]2[C@@H](c3ccc(C(C)C)cc3)[C@H](C(F)(F)F)N[C@@]23C(=O)Nc2ccccc23)c1[N+](=O)[O-]`, above 20 µM.
On to `Cc1noc([C@@H]2[C@@H](c3cc(Cl)ccc3Cl)[C@H](C(F)(F)F)N[C@@]23C(=O)Nc2ccccc23)c1[N+](=O)[O-]`, for which the concentration for half-maximal inhibition (IC50) was above 20 µM.
`Cc1ccc([C@H]2[C@H](C(F)(F)F)N[C@@]3(C(=O)Nc4ccccc43)[C@@H]2c2onc(C)c2[N+](=O)[O-])cc1`: the concentration for half-maximal inhibition (IC50) is 18.8 µM.
In the case of `Cc1noc([C@@H]2[C@@H](c3ccc(Cl)c(Cl)c3)[C@H](C(F)(F)F)N[C@@]23C(=O)Nc2ccccc23)c1[N+](=O)[O-]`, the IC50 was above 20 µM.
Still for that read-out and setting: in the case of `CC(=O)N1C(=O)[C@@]2(N[C@@H](C(F)(F)F)[C@H](c3ccccc3)[C@H]2c2onc(C)c2[N+](=O)[O-])c2ccccc21` it was above 20 µM; in that of `Cc1noc([C@@H]2[C@@H](c3ccccc3Br)[C@H](C(F)(F)F)N[C@@]23C(=O)Nc2ccccc23)c1[N+](=O)[O-]`, above 20 µM; in that of `COc1ccc(C2=NC(c3ccc(Cl)cc3)C(c3ccc(Cl)cc3)N2C(=O)N2CCNC(=O)C2)c(OC(C)C)c1` (stereo not given), 15.7 µM.
For the molecule `Cc1onc(C(=O)N2CCN(C(c3ccc(Cl)cc3)c3ccc(Cl)cc3)CC2)c1[N+](=O)[O-]`, the IC50 was above 20 µM.

The test system of a further data set is MCF7. The data set is described as follows: Induction of apoptosis in human MCF7 cells assessed as increase in cleaved caspase-9 level at 2 uM incubated for 48 hrs by Western blot analysis.
Conditions: not given
It counts as functional, cell-based.
For the molecule `COc1ccc(C2=NC(c3ccc(Cl)cc3)C(c3ccc(Cl)cc3)N2C(=O)N2CCNC(=O)C2)c(OC(C)C)c1` (stereo not given), the result was Active.

Another data set has as its system MCF7. The data set is described as follows: Induction of apoptosis in human MCF7 cells at 0.1 to 1 uM incubated for 48 hrs in presence of Fer-1 by annexin-V-FITC and PI staining based flow cytometry analysis. It counts as functional, cell-based. To be noted: dose 0.1-1 µM. On the technique in general: Flow cytometry measures light scatter and fluorescence of single cells or particles in a stream.
For `Cc1noc([C@@H]2[C@@H](c3ccccc3)[C@H](C(F)(F)F)N[C@@]23C(=O)Nc2cc(Br)ccc23)c1[N+](=O)[O-]`, the outcome was Active.

The next data set has as its system MCF7. The data set is described as follows: Induction of apoptosis in human MCF7 cells at 0.1 to 1 uM incubated for 48 hrs by annexin-V-FITC and PI staining based flow cytometry analysis. It counts as functional, cell-based. The settings on record: dose 0.1-1 µM.
For `Cc1noc([C@@H]2[C@@H](c3ccccc3)[C@H](C(F)(F)F)N[C@@]23C(=O)Nc2cc(Br)ccc23)c1[N+](=O)[O-]`, the outcome was Active.

A further data set deals with E3 ubiquitin-protein ligase Mdm2 (Homo sapiens, UniProt Q00987). Put plainly: Inhibition of MDM2 (unknown origin) using peptide as substrate incubated for 30 mins by fluorescence polarization assay.
Sequence of E3 ubiquitin-protein ligase Mdm2 (Q00987 whole entry): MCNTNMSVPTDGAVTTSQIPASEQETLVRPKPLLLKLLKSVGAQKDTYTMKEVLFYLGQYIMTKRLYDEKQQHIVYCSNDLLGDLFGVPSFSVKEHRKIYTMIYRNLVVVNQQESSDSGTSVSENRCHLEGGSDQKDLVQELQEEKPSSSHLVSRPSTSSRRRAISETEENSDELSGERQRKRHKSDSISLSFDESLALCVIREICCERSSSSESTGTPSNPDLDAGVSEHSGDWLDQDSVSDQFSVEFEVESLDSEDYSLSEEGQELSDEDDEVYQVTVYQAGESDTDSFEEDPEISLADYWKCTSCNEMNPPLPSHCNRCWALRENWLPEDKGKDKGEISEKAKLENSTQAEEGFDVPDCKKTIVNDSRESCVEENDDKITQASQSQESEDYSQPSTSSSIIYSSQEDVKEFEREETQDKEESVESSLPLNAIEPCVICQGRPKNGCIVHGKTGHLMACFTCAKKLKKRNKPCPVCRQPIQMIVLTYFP
Conditions: not given
Consider `C=CCN1C(=O)[C@@]2(N[C@@H](C(F)(F)F)[C@H](c3ccccc3)[C@H]2c2onc(C)c2[N+](=O)[O-])c2ccccc21`, for which the inhibition constant Ki (usually the dissociation constant of the complex between target and ligand, obtained from inhibition or displacement) was above 10 µM.
On the same count and under the same terms, in the case of `COc1ccccc1[C@H]1[C@H](C(F)(F)F)N[C@@]2(C(=O)Nc3ccccc32)[C@@H]1c1onc(C)c1[N+](=O)[O-]` it was above 10 µM; in that of `Cc1noc([C@@H]2[C@@H](c3cc(Cl)ccc3Cl)[C@H](C(F)(F)F)N[C@@]23C(=O)Nc2ccccc23)c1[N+](=O)[O-]`, above 10 µM; in that of `CC(=O)N1C(=O)[C@@]2(N[C@@H](C(F)(F)F)[C@H](c3ccccc3)[C@H]2c2onc(C)c2[N+](=O)[O-])c2ccccc21`, above 10 µM.
The same measure, in the same setting: under `Cc1noc([C@@H]2[C@@H](c3ccccc3Br)[C@H](C(F)(F)F)N[C@@]23C(=O)Nc2ccccc23)c1[N+](=O)[O-]` stands above 10 µM.

Source of the values: ChEMBL document CHEMBL4813989, “Design, synthesis, and biological evaluation of nitroisoxazole-containing spiro[pyrrolidin-oxindole] derivatives as novel glutathione peroxidase 4/mouse double minute 2 dual inhibitors that inhibit breast adenocarcinoma cell proliferation” (Eur J Med Chem, 2021).
